This note sets out measurements from patent US11858956B2, “6-aza-nucleoside prodrugs as antiviral agents for treating virus infections” (Southern Research Institute, priority 2020, dated 2024).

The structures appear in SMILES notation.

Common to all, as to format: cell-based
One data set relates to CHIKV. Description: Antiviral activity against CHIKV in NHDF cells. Conditions: Chikungunya virus; for EC90: read-out: CHIKV (NHDF cells) EC90; for log reduction at 10 µM: read-out: CHIKV (NHDF cells) VTR (virus titer reduction).
A short description of data set [1]: Cytotoxicity (CC50) in MDCK cells. The following applies: dog, H1N1.
Data set [2] in a line: Cytotoxicity (CC50) in NHDF cells. The following applies: human, CHIKV. The protocol:
As used herein, “CC50” is intended to refer to the concentration of a substance (e.g., a compound or a drug) that is required for 50% reduction of cell viability. In one aspect, an CC50 can refer to the concentration of a substance that is required for 50% reduction (i.e., cytotoxicity) in vivo, as further defined elsewhere herein.
VTR=Virus titer reduction in log at 10 μM concentration. NT: not tested, ND: not determined.

The test system of the next data set is VEEV. Description: microbe, parasite or virus in culture. The following applies: Venezuelan equine encephalitis virus, NHDF; for EC90: read-out: VEEV (NHDF cells) EC90; for log reduction at 10 µM: read-out: VEEV (NHDF cells) VTR (virus titer reduction).
A further data set deals with H3N2 strain. Description: Antiviral activity against Influenza H3N2 strain in MDCK cells. The following applies: Influenza A virus, at 20 μM concentration, 4-6 hours pre-incubation, read-out: H3N2 strain (MDCK cells) VTR (virus titer reduction). The protocol: (§1) The antiviral activity against Influenza viruses (H1N1 and H3N2 strains) evaluated in MDCK cells (4-6 hours pre-incubation with compound) shown in Table 5 below. VTR=Virus titer reduction in log at 20 μM concentration. NT: not tested, ND: not determined.

The next data set relates to ZIKA. Description: Antiviral activity against ZIKA in HEK 293 cells. The following applies: Zika virus; for EC90: HEK293, read-out: ZIKA (HEK 293 cells) EC90; for log reduction at 10 µM: HEK293, read-out: ZIKA (HEK 293 cells) VTR (virus titer reduction).
For the next data set, the system named is DENV. Description: Antiviral activity against DENV in HEK293 cells. Conditions: Dengue virus; for EC90: HEK293, read-out: DENV (HEK293 cells) EC90; for log reduction at 10 µM: HEK293, read-out: DENV (HEK293 cells) VTR (virus titer reduction).
For the next data set, the system named is WNV. Description: Antiviral activity against WNV in HEK293 cells. The following applies: West Nile virus; for EC90: HEK293, read-out: WNV (HEK293 cells) EC90; for log reduction at 10 µM: HEK293, read-out: WNV (HEK293 cells) VTR (virus titer reduction).
The subject of the next data set is H1N1 strain. Description: Antiviral activity against Influenza H1N1 strain in MDCK cells. Conditions: Influenza A virus, at 20 μM concentration, 4-6 hours pre-incubation, read-out: H1N1 strain (MDCK cells) VTR (virus titer reduction). The protocol: as §1
Data set [3] is described as follows: Cytotoxicity (CC50) in HEK293 cells. The following applies: human, WNV.

For `C[C@H](NP(=O)(OC[C@H]1O[C@@H](n2ncc(=O)[nH]c2=O)[C@H](O)[C@@H]1O)Oc1ccccc1)C(=O)OCc1ccc([N+](=O)[O-])o1` (mixture of isomers) [Compound 1, (5-nitrofuran-2-yl)methyl ((((2R,3S,4R,5R)-5-(3,5-dioxo-4,5-dihydro-1,2,4-triazin-2(3H)-yl)-3,4-dihydroxytetra-hydrofuran-2-yl)methoxy)(phenoxy)phosphoryl)-L-alaninate], the EC90 in the data set with CHIKV is 0.95 µM; with VEEV it was above 10 µM; in the data set on ZIKA, 3.2 µM; in the data set with DENV, 1.9 µM; in the data set with WNV, 0.6 µM. In addition, the log reduction at 10 µM is 4.3 in the data set on CHIKV; 0.85 with VEEV; 2.2 in the data set on ZIKA; 2.4 in the data set with DENV; 3.8 in the data set on WNV. Further, the CC50 is above 100 µM in data set [1], above 40 µM in [2] and 40 µM in [3]. Further, the log reduction at 20 µM with H3N2 strain came to 0.6; in the data set on H1N1 strain, 1.6.

With `CC(C)COC(=O)[C@H](C)N[P@](=O)(OC[C@H]1O[C@@H](n2ncc(=O)[nH]c2=O)[C@H](O)[C@@H]1O)Oc1cccc2ccccc12` [Compound 8, isobutyl ((((2R,3S,4R,5R)-5-(3,5-dioxo-4,5-dihydro-1,2,4-triazin-2(3H)-yl)-3,4-dihydroxytetrahydrofuran-2-yl)-methoxy)(naphthalen-1-yloxy)phosphoryl)-L-alaninate], the EC90 with CHIKV is above 10 µM; in the data set with VEEV, above 10 µM; in the data set on ZIKA, 6 µM; in the data set on DENV, 3.9 µM; in the data set with WNV it was 2.9 µM. Further, the log reduction at 10 µM in the data set with CHIKV is 0; in the data set on VEEV, 0.21; with ZIKA it was 1.6; in the data set on DENV, 2.3; in the data set on WNV, 2.8. Moreover, the half-maximal cytotoxic concentration (CC50) in [1] was above 100 µM; in [2], above 40 µM; in data set [3] it was above 40 µM. Also, the values for the log reduction at 20 µM in the data set with H3N2 strain and in the data set on H1N1 strain were 1.6 and 3.4, respectively.
